Laboratory results as given in ChEMBL document CHEMBL1201862, “PubChem BioAssay data set” (2004).
Active and inactive are the calls of the source.

Experiments:
[1] = molecular target: T1, Protein RecA (Mycobacterium tuberculosis, UniProt P9WHJ3); experiment: Fluorescence Cell-Free Homogeneous Dose Retest to Identify Inhibitors of RecA-Intein Splicing Activity. [Related pubchem assays (depositor defined):AID2097, AID2223, AID489010, AID492950]; type: functional
T1 sequence (P9WHJ3 whole entry): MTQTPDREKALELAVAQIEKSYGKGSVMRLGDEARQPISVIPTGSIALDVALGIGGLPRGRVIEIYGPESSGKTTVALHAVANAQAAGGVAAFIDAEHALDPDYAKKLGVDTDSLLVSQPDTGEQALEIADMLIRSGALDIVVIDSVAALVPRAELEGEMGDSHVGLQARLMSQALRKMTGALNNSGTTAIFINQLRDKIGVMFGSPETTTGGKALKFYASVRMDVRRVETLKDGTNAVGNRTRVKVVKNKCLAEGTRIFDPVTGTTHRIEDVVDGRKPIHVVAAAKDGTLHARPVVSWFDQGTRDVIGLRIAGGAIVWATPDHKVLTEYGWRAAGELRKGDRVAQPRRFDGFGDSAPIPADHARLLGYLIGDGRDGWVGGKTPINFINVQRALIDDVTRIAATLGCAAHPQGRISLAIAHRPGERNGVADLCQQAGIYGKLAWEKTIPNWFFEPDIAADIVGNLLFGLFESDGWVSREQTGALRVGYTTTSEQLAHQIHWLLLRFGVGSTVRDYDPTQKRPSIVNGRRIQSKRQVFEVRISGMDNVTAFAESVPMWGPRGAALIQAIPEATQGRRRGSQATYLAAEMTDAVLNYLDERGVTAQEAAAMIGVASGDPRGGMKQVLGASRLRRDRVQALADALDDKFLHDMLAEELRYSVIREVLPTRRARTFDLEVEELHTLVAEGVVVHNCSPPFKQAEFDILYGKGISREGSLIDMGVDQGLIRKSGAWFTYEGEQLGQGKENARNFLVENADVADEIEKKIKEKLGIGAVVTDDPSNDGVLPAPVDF

[2] = molecular target: T2, Replicative DNA helicase DnaB (Mycobacterium tuberculosis, UniProt P9WMR3); experiment: DnaB intein splicing inhibitors, dose response, biochemical, cell-free fluorescence (AID 449749); type: functional
T2 sequence (P9WMR3 whole entry): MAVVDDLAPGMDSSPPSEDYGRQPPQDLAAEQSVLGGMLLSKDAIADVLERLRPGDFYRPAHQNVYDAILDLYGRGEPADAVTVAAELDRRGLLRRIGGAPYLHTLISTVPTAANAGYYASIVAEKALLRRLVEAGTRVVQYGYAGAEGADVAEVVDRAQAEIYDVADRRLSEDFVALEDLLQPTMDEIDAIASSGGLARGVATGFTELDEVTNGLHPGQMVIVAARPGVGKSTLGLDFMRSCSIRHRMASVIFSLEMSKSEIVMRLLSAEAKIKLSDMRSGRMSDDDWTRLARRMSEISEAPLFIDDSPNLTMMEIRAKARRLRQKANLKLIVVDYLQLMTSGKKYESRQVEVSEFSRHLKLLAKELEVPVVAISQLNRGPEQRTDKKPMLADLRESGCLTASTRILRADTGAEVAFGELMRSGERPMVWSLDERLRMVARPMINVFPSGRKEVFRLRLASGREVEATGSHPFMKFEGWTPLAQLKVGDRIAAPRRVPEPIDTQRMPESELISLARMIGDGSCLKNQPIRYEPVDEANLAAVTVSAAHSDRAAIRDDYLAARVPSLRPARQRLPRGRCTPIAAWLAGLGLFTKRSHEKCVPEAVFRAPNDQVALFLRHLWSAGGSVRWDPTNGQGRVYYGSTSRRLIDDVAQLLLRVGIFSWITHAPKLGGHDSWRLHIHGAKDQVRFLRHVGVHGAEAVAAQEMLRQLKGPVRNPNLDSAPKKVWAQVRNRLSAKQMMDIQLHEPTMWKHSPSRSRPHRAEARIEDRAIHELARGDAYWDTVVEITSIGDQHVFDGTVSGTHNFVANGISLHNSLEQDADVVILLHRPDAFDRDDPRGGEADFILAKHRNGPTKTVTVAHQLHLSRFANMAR

[3] = molecular target: T3, Ubiquitin-conjugating enzyme E2 N (Homo sapiens, UniProt P61088); type: functional;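 note: Dose-response confirmation in a TR-FRET assay detecting UBC13-driven polyubiquitin chain formation, inhibition measured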
T3 sequence (P61088 whole entry): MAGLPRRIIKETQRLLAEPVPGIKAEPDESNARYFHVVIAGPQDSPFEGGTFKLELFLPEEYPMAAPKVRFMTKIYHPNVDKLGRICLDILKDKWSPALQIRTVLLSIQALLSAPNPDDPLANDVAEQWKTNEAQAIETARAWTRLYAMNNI

[4] = molecular target: T4, DNA repair protein RAD52 homolog (Homo sapiens, UniProt P43351); type: functional, biochemical
T4 sequence (P43351 whole entry): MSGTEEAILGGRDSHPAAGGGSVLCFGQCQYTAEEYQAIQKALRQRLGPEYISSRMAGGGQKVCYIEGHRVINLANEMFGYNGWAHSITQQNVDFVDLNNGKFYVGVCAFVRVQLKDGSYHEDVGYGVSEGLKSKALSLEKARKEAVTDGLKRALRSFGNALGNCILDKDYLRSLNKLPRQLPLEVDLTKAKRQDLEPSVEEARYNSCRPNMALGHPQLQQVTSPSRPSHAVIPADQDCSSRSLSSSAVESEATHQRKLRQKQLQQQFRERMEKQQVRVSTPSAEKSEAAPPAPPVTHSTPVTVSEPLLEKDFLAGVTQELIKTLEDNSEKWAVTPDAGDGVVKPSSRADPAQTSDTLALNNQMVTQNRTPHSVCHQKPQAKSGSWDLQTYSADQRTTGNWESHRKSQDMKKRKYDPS

[5] = molecular target: Photoreceptor-specific nuclear receptor (Homo sapiens, UniProt Q9Y5X4); type: functional;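 note: potency for compounds that break the NR2E3 corepressor complex and count as activators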
Photoreceptor-specific nuclear receptor, sequence (Q9Y5X4 whole entry): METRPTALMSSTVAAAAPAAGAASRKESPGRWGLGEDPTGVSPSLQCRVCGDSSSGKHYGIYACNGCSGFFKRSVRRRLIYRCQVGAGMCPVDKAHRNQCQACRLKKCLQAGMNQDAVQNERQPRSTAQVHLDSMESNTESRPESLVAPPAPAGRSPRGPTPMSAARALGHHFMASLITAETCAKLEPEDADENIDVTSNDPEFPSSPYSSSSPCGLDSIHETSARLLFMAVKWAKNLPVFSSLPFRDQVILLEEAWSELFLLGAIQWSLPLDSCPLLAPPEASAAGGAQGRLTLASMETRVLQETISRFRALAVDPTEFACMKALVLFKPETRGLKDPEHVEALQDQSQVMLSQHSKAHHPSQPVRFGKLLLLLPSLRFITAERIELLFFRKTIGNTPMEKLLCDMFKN

[6] = molecular target: Induced myeloid leukemia cell differentiation protein Mcl-1 (Homo sapiens, UniProt Q07820); type: functional
Induced myeloid leukemia cell differentiation protein Mcl-1, sequence (Q07820 whole entry): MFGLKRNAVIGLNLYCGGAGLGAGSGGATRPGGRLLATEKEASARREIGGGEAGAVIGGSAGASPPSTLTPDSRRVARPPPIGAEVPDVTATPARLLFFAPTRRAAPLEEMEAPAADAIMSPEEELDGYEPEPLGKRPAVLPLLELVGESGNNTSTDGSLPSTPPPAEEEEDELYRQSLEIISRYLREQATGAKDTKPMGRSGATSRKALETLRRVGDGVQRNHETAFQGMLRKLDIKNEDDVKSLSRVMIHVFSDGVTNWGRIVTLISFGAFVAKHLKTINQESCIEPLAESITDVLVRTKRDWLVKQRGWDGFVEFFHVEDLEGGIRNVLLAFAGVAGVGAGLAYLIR

[7] = luciferase reporter signal suppression in cells – H4 neuroglioma cells, luminescence, dose response (AID 1990); type: functional, cell-based
[8] = molecular target: T5, Bcl-2-related protein A1 (Mus musculus, UniProt Q07440); type: functional;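 note: confirmatory dose–response counterscreen on Bfl-1, used to check hits from a UBC13 polyubiquitin inhibitor campaign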
T5 sequence (Q07440 whole entry): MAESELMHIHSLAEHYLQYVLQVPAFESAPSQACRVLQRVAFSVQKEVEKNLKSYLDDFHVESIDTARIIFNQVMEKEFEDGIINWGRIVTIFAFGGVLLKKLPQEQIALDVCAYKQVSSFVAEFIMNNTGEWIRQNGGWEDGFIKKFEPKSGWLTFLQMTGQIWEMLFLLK

Q: What does the source list for `CCCCCCCCCCOC(=O)Cn1c(COc2ccccc2)[n+](C)c2ccccc21`?
A: EC50 [1]: 9.4 µM (active); AC50 [2]: 3.6 µM (active); IC50 [3]: > 20 µM (inactive); AC50 [4]: 12.5 µM (active)

Q: With `N#Cc1c(NC(=O)c2ccc(Br)o2)n(-c2ccccc2)c2nc3ccccc3nc12` as the compound, how does the IC50 [5] read?
A: > 39.8 µM (not active)

Q: Which results are given for `CC(C)[n+]1ccn(C2=C([N-]S(=O)(=O)c3ccccc3)C(=O)c3ccccc3C2=O)c1`?
A: EC50 [1]: 12 µM (active); AC50 [2]: 12.3 µM (active)

Q: With `COc1cc(-c2nnc(SCc3cc(=O)oc4cc(O)c(O)cc34)o2)cc(OC)c1OC` as the compound, how does the IC50 [6] read?
A: 3.77 µM (active)

Q: With `CCOC(=O)c1c(-c2ccc(-c3ccccc3)cc2)csc1NC(=O)CNCCN(C)C` as the compound, how does the EC50 [7] read?
A: > 120 µM (not active)

Q: What about the IC50 [8] of the same compound?
A: > 20 µM (inactive)

Q: What about the IC50 [3] of the same compound?
A: 11.4 µM (active)

Q: What about the AC50 [4] of the same compound?
A: 5.29 µM (active)
